# Publication PMC8343220, “The selectivity of α‐adrenoceptor agonists for the human α1A, α1B, and α1D‐adrenoceptors” (Pharmacology Research & Perspectives, 2021)
# Key:
# [1] = molecular target: T1, human α1A‐adrenoceptor (Homo sapiens, UniProt P35348); assay: ^3H‐prazosin whole‐cell radioligand binding, CHO‐α1A cells
# T1 construct: expressed in transfected cells; host or cells: CHO-K1
# T1 sequence (P35348 1-466): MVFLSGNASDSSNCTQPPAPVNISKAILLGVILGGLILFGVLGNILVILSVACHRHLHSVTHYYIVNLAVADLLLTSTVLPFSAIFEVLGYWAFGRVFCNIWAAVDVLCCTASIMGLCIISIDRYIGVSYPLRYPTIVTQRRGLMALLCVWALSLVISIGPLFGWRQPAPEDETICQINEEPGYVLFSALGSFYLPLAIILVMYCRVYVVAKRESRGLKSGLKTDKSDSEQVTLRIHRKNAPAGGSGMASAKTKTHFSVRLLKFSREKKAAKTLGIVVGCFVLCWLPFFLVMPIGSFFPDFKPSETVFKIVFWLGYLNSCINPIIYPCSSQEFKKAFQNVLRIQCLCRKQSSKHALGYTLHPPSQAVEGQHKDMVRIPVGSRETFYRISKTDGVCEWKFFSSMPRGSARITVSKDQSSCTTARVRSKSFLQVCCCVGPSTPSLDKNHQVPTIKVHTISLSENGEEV
# [2] = molecular target: T2, human α1D‐adrenoceptor (full length) (Homo sapiens, UniProt P25100); assay: ^3H‐prazosin whole‐cell radioligand binding, CHO‐α1D cells
# T2 construct: human α1D‐adrenoceptor (full length) were used; expressed in transfected cells; host or cells: CHO-K1
# T2 sequence (P25100 1-572): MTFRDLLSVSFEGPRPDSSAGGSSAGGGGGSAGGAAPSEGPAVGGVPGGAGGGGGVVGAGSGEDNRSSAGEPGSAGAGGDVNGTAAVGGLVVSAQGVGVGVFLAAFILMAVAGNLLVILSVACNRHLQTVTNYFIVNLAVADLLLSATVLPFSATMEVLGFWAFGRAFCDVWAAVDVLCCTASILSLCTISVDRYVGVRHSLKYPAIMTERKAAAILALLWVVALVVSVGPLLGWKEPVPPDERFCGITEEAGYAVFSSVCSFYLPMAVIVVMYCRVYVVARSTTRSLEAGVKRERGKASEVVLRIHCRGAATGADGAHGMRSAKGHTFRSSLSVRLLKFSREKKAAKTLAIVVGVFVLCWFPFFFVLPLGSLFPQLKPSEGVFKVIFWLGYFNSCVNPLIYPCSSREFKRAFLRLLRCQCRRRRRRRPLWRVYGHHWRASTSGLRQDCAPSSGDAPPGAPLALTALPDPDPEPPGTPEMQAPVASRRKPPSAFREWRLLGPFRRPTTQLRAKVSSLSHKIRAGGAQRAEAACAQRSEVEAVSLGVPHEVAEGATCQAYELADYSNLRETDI
# [3] = molecular target: T1, human α1A‐adrenoceptor; assay: Intracellular free calcium mobilization, CHO‐α1A cells; assay type: cell-based
# [4] = molecular target: T3, human α1B‐adrenoceptor (Homo sapiens, UniProt P35368); assay: Intracellular free calcium mobilization, CHO‐α1B cells; assay type: cell-based
# T3 construct: expressed in transfected cells; host or cells: CHO-K1
# T3 sequence (P35368 1-520): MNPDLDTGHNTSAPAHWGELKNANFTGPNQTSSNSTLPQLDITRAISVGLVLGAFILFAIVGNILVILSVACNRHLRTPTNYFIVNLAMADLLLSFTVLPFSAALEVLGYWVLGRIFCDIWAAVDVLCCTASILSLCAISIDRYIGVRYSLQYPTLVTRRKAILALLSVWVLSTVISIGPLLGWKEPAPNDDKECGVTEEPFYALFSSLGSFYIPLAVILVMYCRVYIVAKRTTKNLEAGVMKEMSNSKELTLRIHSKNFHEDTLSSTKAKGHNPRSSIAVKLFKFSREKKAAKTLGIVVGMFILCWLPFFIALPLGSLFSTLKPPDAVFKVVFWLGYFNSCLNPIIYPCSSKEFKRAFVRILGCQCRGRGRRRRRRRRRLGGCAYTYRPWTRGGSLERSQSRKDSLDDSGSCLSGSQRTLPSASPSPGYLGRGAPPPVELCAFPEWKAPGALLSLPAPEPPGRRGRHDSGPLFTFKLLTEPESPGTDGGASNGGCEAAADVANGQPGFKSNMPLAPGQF
# [5] = molecular target: T2, human α1D‐adrenoceptor (full length); assay: Intracellular free calcium mobilization, CHO‐α1D cells; assay type: cell-based
# [6] = system: parental CHO cell line without any transfected receptors; assay: Intracellular calcium mobilization, parent CHO cells without transfected receptors; assay type: cell-based, Chinese hamster
# [7] = molecular target: T1, human α1A‐adrenoceptor; assay: ERK1/2‐phosphorylation (Surefire Alphascreen), CHO‐α1A cells; assay type: cell-based
# [8] = molecular target: T3, human α1B‐adrenoceptor; assay: ERK1/2‐phosphorylation (Surefire Alphascreen), CHO‐α1B cells; assay type: cell-based
# [9] = molecular target: T2, human α1D‐adrenoceptor (full length); assay: ERK1/2‐phosphorylation (Surefire Alphascreen), CHO‐α1D cells; assay type: cell-based
# [10] = system: parental CHO cell line without any transfected receptors; assay: ERK1/2‐phosphorylation, parent CHO cells without transfected receptors; assay type: cell-based, Chinese hamster
# [11] = molecular target: T1, human α1A‐adrenoceptor; assay: ^3H‐cAMP accumulation, CHO‐α1A cells; assay type: cell-based; settings: CHO‐α1A cells
# [12] = system: parental CHO cell line without any transfected receptors; assay: ^3H‐cAMP accumulation, parent CHO cells without transfected receptors; assay type: cell-based, Chinese hamster
# [13] = molecular target: T1, human α1A‐adrenoceptor; assay: ^3H‐cAMP accumulation in the presence of 10 μM forskolin, CHO‐α1A cells; assay type: cell-based; settings: CHO‐α1A cells
# [14] = system: parental CHO cell line without any transfected receptors; assay: Forskolin‐stimulated cAMP accumulation, parent CHO cells without transfected receptors; assay type: cell-based, Chinese hamster
# [15] = molecular target: T1, human α1A‐adrenoceptor; settings: CHO‐α1A cells; given as log KD (negative); ligands marked ^a; ref Proudman et al., 2020; cited from earlier work
# [16] = molecular target: T3, human α1B‐adrenoceptor; settings: CHO‐α1B cells; given as log KD (negative); ligands marked ^a; ref Proudman et al., 2020; cited from earlier work
# [17] = molecular target: T2, human α1D‐adrenoceptor (full length); settings: CHO‐α1D cells; ligands marked ^a; ref Proudman et al., 2020; cited from earlier work
SMILES,Affinity selectivity ratio α1A vs α1B [1] [fold],Affinity selectivity ratio α1A vs α1D [1] [fold],3H‐prazosin binding Log KD [2],Affinity selectivity ratio α1B vs α1D [2] [fold],Intracellular calcium release % ionomycin [3] [%],Intracellular calcium release Log EC50 [3],Log efficacy ratio KD /EC50 [3],Intracellular calcium release % Ionomycin at 100 µM [5] [%],Intracellular calcium release % ionomycin [6],ERK1/2‐phosphorylation % PDBu [7] [%],ERK1/2‐phosphorylation Log EC50 [7],ERK1/2‐phosphorylation % PDBu at 100 µM [9] [%],"Log KD α1A, ^3H‐prazosin whole cell binding [15]","Log KD α1B, ^3H‐prazosin whole cell binding [16]","Log KD α1D, ^3H‐prazosin whole cell binding (single site or first, higher affinity component) [17]",also measured
CCC1(C2=NCCN2)Cc2ccccc2O1 (stereo not drawn) [Eforaxan],15.8,3.2,−4.97,5.0,45.0 ± 2.6,−6.83 ± 0.10,1.36,2.8 ± 0.8,No response,76.4 ± 5.2,−6.12 ± 0.07,2.7 ± 1.5,−5.47 ± 0.03,−4.27 ± 0.07,−4.97 ± 0.06,Intracellular calcium release % ionomycin [4]: No response; Intracellular calcium release Log EC50 [4]: No response; ERK1/2‐phosphorylation % PDBu at 100 µM [8]: 11.9 ± 2.4%; ERK1/2-phosphorylation % PDBu [10]: No response; ERK1/2-phosphorylation Log EC50 [10]: No response; cAMP accumulation Log EC50 ([11]; 5 h): −5.47 ± 0.10; cAMP accumulation % forskolin ([11]; % of 10 µM forskolin response): 4.0 ± 0.6%; cAMP accumulation % forskolin [12]: No response; cAMP accumulation (in presence of forskolin) Log EC50 ([13]; 10 μM forskolin): −5.93 ± 0.13; cAMP accumulation (in presence of forskolin) Fold increase ([13]; fold increase of the forskolin response): 1.47 ± 0.13 fold; cAMP accumulation (in presence of forskolin) % forskolin-stim cAMP [14]: No response; cAMP accumulation (in presence of forskolin) Log EC50 [14]: No response
O=C1CCC(=O)N1C[C@H]1CC[C@H]2CN(c3ncccn3)CCN2C1 [Sunepitrion],13.5,2.8,−5.33,4.8,30.1 ± 3.0,−6.17 ± 0.14,0.39,2.5 ± 0.5,No response,39.7 ± 8.4,−5.96 ± 0.12,2.4 ± 1.1,−5.78 ± 0.06,−4.65 ± 0.06,−5.33 ± 0.23,Intracellular calcium release % Ionomycin at 100 µM [4]: 8.2 ± 1.3%; ERK1/2‐phosphorylation % PDBu [8]: 7.8 ± 2.8%; ERK1/2-phosphorylation % PDBu at 100μM [10]: 4.1 ± 2.7%
